Experiment [1] concerns the target T1, Alkaline phosphatase, tissue-nonspecific isozyme (Homo sapiens, UniProt P05186).
T1 sequence (P05186 whole entry): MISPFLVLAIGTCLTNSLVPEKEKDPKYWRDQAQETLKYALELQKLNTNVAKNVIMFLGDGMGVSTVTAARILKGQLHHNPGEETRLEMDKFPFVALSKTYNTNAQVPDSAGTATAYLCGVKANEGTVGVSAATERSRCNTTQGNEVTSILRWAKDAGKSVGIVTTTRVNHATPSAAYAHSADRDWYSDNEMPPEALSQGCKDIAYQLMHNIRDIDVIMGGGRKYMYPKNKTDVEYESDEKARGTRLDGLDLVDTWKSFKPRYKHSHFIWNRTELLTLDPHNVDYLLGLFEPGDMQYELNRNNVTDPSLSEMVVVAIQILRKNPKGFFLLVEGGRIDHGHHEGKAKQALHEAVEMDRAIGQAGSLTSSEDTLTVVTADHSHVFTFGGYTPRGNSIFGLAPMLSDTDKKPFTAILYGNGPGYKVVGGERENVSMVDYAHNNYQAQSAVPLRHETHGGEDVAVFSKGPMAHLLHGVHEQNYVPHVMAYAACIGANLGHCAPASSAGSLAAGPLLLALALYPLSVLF
Put plainly: potency against alkaline phosphatase TNAP – biochemical, luminescent, dose response, SAR follow-up (AID 1056).

The target of experiment [2] is Glyceraldehyde-3-phosphate dehydrogenase (Homo sapiens, UniProt P04406).
Chain of Glyceraldehyde-3-phosphate dehydrogenase (P04406 whole entry): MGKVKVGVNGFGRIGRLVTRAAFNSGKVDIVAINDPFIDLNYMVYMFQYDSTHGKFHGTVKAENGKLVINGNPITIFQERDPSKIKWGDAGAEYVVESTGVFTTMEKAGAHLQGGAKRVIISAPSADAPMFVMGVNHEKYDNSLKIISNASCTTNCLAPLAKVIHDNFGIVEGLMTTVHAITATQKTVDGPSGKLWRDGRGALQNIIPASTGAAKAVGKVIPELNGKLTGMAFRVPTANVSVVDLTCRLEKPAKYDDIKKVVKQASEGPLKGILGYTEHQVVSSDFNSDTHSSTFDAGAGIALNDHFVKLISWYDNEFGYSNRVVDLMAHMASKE
Experiment [3] concerns the target Intestinal-type alkaline phosphatase (Homo sapiens, UniProt P09923). Briefly: Dose Response confirmation of uHTS hits from a small molecule inhibitors of human intestinal alkaline phosphatase via a luminescent assay. [Related pubchem assays (depositor defined):AID2544, AID2574]. The class given is functional.
The target of experiment [4] is DNA dC->dU-editing enzyme APOBEC-3G (Homo sapiens, UniProt Q9HC16). Put plainly: Dose Response confirmation of small molecule APOBEC3G DNA Deaminase Inhibitors via a fluorescence-based single-stranded DNA deaminase assay. [Related pubchem assays (depositor defined):AID493012, AID493028]. The class given is functional.
Chain of DNA dC->dU-editing enzyme APOBEC-3G (Q9HC16 whole entry): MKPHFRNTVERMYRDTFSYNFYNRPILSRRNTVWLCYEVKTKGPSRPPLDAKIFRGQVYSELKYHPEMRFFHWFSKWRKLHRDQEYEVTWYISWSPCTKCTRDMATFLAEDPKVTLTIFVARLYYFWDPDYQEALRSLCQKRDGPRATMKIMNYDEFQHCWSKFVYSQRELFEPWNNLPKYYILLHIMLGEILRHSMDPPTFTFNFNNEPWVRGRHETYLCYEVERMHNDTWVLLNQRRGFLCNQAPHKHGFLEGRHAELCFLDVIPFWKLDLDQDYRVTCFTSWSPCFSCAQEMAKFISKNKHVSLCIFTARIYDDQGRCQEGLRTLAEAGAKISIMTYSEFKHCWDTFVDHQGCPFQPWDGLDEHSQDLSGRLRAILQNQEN
The target of experiment [5] is DNA dC->dU-editing enzyme APOBEC-3A (Homo sapiens, UniProt P31941). Put plainly: A3A deaminase inhibition for selectivity – biochemical, dose response (AID 504722). The class given is functional.
Chain of DNA dC->dU-editing enzyme APOBEC-3A (P31941 whole entry): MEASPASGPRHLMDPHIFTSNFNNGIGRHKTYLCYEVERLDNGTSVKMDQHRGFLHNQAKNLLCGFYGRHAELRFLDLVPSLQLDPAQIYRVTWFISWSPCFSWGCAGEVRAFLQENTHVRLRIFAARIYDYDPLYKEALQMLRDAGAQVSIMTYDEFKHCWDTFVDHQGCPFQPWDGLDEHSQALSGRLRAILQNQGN
Experiment [6] addresses T2, Dual specificity protein phosphatase 6 (Rattus norvegicus, UniProt Q64346).
T2 sequence (Q64346 whole entry): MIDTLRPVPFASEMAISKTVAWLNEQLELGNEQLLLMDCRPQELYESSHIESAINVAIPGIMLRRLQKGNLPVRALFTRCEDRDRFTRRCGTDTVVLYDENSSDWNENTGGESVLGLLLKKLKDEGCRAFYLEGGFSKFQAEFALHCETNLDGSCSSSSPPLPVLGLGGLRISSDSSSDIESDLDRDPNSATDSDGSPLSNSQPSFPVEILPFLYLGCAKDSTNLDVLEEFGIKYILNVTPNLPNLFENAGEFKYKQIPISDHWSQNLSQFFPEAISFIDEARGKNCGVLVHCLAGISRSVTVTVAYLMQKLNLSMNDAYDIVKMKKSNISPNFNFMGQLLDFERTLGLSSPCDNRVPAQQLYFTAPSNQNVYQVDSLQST

The target of experiment [7] is T2, Dual specificity protein phosphatase 6. It is filed as functional.
The target of experiment [8] is Voltage-dependent T-type calcium channel subunit alpha-1H (Homo sapiens, UniProt O95180). The class given is functional.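 Also: channel activity triggered by adding a high calcium stimulation buffer.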
Chain of Voltage-dependent T-type calcium channel subunit alpha-1H (O95180 whole entry): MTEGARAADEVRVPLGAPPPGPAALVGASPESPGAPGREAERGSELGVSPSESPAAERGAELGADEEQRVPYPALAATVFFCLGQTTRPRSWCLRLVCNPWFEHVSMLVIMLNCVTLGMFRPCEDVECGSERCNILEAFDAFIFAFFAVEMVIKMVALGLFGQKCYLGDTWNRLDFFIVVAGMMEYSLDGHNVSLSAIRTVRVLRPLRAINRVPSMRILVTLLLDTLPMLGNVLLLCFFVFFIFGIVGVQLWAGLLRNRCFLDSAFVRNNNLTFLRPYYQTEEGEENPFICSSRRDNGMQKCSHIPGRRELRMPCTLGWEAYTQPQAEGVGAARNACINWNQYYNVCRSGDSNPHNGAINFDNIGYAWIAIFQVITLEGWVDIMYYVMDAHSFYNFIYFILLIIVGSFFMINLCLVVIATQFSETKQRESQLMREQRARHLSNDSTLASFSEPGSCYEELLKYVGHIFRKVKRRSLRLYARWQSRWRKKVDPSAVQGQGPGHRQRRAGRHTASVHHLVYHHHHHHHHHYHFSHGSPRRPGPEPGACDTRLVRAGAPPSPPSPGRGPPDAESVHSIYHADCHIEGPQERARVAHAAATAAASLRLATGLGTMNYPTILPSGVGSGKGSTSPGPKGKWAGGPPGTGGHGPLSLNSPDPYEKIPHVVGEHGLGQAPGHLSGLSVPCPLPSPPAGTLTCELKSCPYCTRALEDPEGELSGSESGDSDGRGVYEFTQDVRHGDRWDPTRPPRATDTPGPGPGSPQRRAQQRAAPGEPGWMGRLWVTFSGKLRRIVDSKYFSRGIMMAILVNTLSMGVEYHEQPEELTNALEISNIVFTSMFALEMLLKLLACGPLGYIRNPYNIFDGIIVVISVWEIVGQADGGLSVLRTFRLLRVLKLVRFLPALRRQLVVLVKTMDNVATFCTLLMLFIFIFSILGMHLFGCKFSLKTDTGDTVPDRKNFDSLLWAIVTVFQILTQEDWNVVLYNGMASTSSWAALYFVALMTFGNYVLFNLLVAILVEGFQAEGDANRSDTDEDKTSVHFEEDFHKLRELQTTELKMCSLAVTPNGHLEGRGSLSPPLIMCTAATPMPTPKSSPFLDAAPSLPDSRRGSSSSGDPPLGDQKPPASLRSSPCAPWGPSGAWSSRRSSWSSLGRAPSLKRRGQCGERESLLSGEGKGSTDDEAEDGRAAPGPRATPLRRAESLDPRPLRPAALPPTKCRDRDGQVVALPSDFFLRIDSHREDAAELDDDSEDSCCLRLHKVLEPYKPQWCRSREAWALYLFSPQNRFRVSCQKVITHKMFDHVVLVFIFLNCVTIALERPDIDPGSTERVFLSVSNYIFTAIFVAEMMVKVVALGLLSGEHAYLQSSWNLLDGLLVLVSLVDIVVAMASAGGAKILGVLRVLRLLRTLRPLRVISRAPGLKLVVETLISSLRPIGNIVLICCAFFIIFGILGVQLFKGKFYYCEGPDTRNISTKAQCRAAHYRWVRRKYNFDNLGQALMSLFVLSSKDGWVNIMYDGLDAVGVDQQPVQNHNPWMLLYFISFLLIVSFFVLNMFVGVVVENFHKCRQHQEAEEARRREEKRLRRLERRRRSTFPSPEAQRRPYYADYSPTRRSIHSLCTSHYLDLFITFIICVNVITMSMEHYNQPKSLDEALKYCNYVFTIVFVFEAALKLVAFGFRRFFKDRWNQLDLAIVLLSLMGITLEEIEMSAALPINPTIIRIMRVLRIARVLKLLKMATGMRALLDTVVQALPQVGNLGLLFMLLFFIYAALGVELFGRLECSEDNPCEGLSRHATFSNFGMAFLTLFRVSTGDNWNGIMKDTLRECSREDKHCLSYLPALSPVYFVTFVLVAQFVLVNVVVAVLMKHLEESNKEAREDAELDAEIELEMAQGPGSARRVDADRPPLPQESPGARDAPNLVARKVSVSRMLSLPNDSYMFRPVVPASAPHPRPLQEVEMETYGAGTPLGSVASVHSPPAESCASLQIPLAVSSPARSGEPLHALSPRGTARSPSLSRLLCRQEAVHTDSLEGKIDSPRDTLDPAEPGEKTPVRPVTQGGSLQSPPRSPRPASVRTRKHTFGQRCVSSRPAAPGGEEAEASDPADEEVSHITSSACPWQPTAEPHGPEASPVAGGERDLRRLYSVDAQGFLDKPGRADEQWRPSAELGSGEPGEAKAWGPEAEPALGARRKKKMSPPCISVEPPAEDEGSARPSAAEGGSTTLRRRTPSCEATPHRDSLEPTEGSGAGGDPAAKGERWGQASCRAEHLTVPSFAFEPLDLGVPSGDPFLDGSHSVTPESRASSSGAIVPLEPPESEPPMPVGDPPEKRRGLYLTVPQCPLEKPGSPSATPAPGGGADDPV
Another experiment deals with Cytochrome P450 3A4 (Homo sapiens, UniProt P08684).
Chain of Cytochrome P450 3A4 (P08684 whole entry): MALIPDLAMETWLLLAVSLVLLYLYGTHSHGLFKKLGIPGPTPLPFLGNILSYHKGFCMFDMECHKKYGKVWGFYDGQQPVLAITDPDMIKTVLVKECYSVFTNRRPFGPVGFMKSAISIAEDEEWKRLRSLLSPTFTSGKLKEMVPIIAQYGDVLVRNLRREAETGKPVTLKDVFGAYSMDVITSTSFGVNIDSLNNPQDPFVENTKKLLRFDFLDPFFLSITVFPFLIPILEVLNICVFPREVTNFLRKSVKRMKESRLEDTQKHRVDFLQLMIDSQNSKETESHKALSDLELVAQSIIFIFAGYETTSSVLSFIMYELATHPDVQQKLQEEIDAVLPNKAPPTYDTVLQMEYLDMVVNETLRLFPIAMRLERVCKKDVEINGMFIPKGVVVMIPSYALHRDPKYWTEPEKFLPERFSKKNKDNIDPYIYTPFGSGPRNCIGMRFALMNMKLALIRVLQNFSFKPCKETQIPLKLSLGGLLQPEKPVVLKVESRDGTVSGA
The target of experiment [9] is T3, Replicative DNA helicase DnaB (Mycobacterium tuberculosis, UniProt P9WMR3).
T3 sequence (P9WMR3 whole entry): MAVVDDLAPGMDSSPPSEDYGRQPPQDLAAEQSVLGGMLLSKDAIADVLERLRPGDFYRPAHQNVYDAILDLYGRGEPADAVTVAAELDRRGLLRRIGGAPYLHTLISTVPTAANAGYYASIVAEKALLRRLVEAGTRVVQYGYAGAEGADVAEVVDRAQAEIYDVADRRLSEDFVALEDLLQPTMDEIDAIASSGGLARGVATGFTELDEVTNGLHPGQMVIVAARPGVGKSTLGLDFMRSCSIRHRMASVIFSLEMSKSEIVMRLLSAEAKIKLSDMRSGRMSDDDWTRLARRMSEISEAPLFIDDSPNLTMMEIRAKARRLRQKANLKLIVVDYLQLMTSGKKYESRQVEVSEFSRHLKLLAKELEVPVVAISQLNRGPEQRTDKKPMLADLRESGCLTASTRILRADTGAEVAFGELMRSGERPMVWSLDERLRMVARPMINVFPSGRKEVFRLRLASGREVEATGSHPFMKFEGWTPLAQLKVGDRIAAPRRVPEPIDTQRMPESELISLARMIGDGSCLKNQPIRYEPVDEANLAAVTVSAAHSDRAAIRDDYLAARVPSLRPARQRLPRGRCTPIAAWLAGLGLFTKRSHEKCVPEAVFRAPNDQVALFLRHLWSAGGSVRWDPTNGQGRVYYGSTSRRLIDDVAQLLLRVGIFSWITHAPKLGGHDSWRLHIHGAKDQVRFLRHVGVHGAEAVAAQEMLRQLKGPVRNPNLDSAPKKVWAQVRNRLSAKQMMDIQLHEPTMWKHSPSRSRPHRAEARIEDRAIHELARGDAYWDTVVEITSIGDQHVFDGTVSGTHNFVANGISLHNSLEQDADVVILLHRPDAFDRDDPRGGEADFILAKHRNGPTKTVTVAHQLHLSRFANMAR
Put plainly: DnaB intein splicing inhibitors, dose response, biochemical, cell-free fluorescence (AID 449749). The class given is functional.

A further experiment addresses Protein Wnt-3a (Mus musculus, UniProt P27467). Put plainly: antagonism of Wnt3a pathway luciferase reporter – Wnt-LIGHT cells, luminescence, selectivity assay for Gli-SUFU antagonist project, dose response (AID 651570).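 Also: Wnt-LIGHT reporter cells stimulated with conditioned medium from Wnt3a-producing cells.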 The class given is functional. As to conditions: read-out: IC50_Mean. For orientation: Reporter assays use an easily measured gene product as a stand-in for the process of interest.

Experiment [10] can be described thus: DRD fibroblast viability loss – cell-based, non-viral oncogenic, luminescence, dose response (AID 1934). It is filed as functional. As to conditions: Homo sapiens.
Experiment [11] can be described thus: HEK-293T cell viability reduction – luminescence, B-cell screen hits, cytotoxicity control for BCR NF-kB inhibitor project, dose response (AID 489021).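 Also: HEK-293T cells carrying an NF-kB luciferase reporter; cells exposed to compound for about 14 hours before viability readout.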 The class given is functional, cell-based.
Experiment [12] can be described thus: Trypanosoma cruzi growth suppression in host cells – NIH3T3 host cells, beta-gal luminescence, confirmation (AID 2044).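 Also: intracellular parasites grown in NIH/3T3 mouse fibroblasts as host cells; luminescent beta-galactosidase reporter signal from transgenic T. cruzi replicating inside host cells; inhibitors lower the luminescence signal.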 The class given is functional, cell-based.
The test system of experiment [13] is BJ. Briefly: BJ-TERT-LT-ST fibroblast viability loss – cell-based, RAS-independent, luminescence, dose response (AID 1935).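 Also: BJ fibroblasts immortalized with TERT plus LT and ST oncogenes.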 The class given is functional. Conditions: Homo sapiens.
In the next experiment the target is T4, Protein RecA (Mycobacterium tuberculosis, UniProt P9WHJ3).
T4 sequence (P9WHJ3 whole entry): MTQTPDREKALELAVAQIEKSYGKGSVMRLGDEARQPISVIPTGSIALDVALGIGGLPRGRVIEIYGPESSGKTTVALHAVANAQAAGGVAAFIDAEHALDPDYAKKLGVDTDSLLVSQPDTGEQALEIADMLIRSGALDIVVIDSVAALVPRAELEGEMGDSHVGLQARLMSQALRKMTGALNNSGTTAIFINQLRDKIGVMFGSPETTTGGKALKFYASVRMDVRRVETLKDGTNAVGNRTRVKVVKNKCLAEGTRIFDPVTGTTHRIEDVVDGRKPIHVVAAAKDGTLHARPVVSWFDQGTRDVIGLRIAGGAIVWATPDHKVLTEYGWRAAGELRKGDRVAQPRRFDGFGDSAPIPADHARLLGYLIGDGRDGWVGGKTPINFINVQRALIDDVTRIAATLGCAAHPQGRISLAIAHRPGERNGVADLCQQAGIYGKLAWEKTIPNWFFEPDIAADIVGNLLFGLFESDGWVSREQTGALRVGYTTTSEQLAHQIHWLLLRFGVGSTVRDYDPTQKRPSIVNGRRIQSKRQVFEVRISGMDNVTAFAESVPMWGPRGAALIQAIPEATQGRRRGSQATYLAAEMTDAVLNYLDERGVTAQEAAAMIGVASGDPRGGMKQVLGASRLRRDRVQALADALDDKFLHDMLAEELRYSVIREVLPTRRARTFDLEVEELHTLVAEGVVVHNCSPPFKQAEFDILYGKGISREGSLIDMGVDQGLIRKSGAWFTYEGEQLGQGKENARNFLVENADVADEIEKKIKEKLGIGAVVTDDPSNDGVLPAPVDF
Briefly: Fluorescence Cell-Free Homogeneous Dose Retest to Identify Inhibitors of RecA-Intein Splicing Activity. [Related pubchem assays (depositor defined):AID2097, AID2223, AID489010, AID492950]. It is filed as functional.

Experiment [14] has as its system BJ. Put plainly: cells. The class given is functional, cell-based. Conditions: Homo sapiens.
Experiment [15] has as its system BJ. Put plainly: BJ-TERT fibroblast viability loss – cell-based, RAS-independent, luminescence, dose response (AID 1933). The class given is functional. As to conditions: Homo sapiens.
Experiment [16] in a line: NIH3T3 cell viability loss – ATP luminescence, mouse fibroblasts, counter-screen, dose response (AID 2010).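 Also: cells exposed to compound for about 90 hours before reading.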 It is filed as functional, cell-based. On the technique in general: A counterscreen serves to expose hits that act by an unwanted route or on another target.
Experiment [17] is described as follows: A Cell Based Secondary Assay To Explore Cytotoxicity of Compounds that Sensitize Mycobacterium Tuberculosis to Beta-Lactam Antibiotics. It is filed as functional.
A further experiment addresses Large T antigen (Simian virus 40, UniProt P03070). The class given is functional, Betapolyomavirus macacae.

By EC50 is commonly meant the midpoint of the concentration-response curve. As usually defined, the AC50 is the concentration giving half of the maximal activity seen. For orientation: CC50 means the concentration that lowers cell viability or growth by half.

The source made the active and inactive calls.

Chain of Intestinal-type alkaline phosphatase (P09923 whole entry): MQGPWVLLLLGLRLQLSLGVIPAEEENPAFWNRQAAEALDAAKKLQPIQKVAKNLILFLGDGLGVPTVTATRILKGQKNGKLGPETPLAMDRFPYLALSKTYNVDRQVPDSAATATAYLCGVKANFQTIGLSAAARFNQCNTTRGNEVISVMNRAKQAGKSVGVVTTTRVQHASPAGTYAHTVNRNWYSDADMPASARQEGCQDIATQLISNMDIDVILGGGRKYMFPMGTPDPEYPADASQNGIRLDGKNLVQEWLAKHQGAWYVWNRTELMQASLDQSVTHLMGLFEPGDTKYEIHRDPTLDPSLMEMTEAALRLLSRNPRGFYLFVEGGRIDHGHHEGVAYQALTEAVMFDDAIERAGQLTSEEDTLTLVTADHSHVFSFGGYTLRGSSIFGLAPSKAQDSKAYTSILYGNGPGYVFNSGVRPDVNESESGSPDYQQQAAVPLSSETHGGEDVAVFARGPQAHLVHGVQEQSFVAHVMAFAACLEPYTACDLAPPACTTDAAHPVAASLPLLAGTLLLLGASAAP
Chain of Protein Wnt-3a (P27467 whole entry): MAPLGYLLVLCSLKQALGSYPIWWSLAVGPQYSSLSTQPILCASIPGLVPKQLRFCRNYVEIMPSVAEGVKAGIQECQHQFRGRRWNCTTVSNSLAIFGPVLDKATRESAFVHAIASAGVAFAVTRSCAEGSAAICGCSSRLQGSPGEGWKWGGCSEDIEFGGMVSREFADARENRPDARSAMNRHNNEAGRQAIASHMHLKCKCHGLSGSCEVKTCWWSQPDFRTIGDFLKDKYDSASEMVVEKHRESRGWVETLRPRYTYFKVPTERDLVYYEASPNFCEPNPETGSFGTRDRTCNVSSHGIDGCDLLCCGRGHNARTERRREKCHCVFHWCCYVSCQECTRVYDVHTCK

For `CCCCc1ccc(S(=O)(=O)Nc2cnc3ccccc3c2)cc1`, the figures for the IC50 in experiment [1] and in experiment [2] were > 100 µM (inactive) and > 100 µM (not active), respectively.

As to `CCOc1ccc(NC(=O)CSc2nncn2C)cc1`, the IC50 in experiment [3] is > 100 µM (inactive).

Regarding `COc1cc(Cl)ccc1OCc1cc(C(=O)N2CCCCCCC2)no1`, the IC50 in [3] is > 100 µM (inactive).

In the case of `COC(=O)CSc1nnc(S)s1`, the IC50 is 17 µM (active) in [4] and > 100 µM (inactive) in experiment [5].

In the case of `COC(=O)c1cc(C#N)c(Oc2ccccc2OC)nc1C`, the IC50 in [3] was > 100 µM (inactive).

With `O=S(=O)(O)c1ccc2cc(/N=N/c3cc(S(=O)(=O)O)c4cccnc4c3O)ccc2c1`, the results for the IC50 in experiment [6], in experiment [7] and in experiment [2] were 5.1 µM (active), 4.19 µM (active) and > 100 µM (not active), respectively.

In the case of `O=C(Cc1ncc(C(F)(F)F)cc1Cl)Nc1cccc(Br)c1`, the EC50 in experiment [8] is 4.24 µM (active). Further, on Cytochrome P450 3A4, the AC50 was 14.1 µM (inconclusive).

`COc1ccc(C(C(=O)NC2CCCCC2)N(C(=O)CCl)c2ccc(Cl)cc2)cc1` (configuration not stated): the AC50 in experiment [9] was 0.774 µM (active). Also, the IC50 at Protein Wnt-3a is 3.16 µM (active); in experiment [11], > 80 µM (inactive). The EC50 was 0.681 µM (active) in [10]; 0.166 µM (active) in experiment [12]; 4.11 µM (inconclusive) in the experiment with BJ [13]; 0.236 µM (active) at Protein RecA; 2.51 µM (active) with BJ [14]; 0.152 µM (active) in the experiment on BJ [15]. Further, the EC50 in experiment [16] was 1.23 µM (active).

On to `O=C(c1cnn2c(C(F)(F)F)cc(-c3cccs3)nc12)N1CCN(C(c2ccccc2)c2ccccc2)CC1`, for which the CC50 in [17] was > 40 µM (active). The EC50 in experiment [8] was 6.75 µM (active).

Turning to `CCSS(=O)(=O)c1cccc2cccnc12`, the IC50 is 12.7 µM (active) in experiment [4], > 100 µM (active) at Large T antigen and > 100 µM (inactive) in experiment [5].

Source of the values: ChEMBL document CHEMBL1201862, “PubChem BioAssay data set” (2004).
